The test system of one data set is telogen effluvium. The conditions noted are these: treatments commonly used for AGA; cited from earlier work.
Another data set concerns Monilethrix. Put plainly: Oral minoxidil in two cases of monilethrix. On the procedure: Patient 6: A person presented with lifelong fragile, sparse, and thin hair. […] Comorbidities included Crohn's disease and impaired hearing. Their child and two sons had also been diagnosed with monilethrix and suffered from sparse and fragile hair. […] As the application of topical minoxidil could potentially accentuate breakage of fragile hairs, treatment was commenced with oral minoxidil 0.25 mg daily.
Patient 7: A person with fragile, thin and sparse hair since childhood secondary to monilethrix presented for assessment and treatment. […] As the application of topical minoxidil could potentially accentuate breakage of fragile hairs oral Minoxidil 0.25 mg daily was commenced.

Data set [1] has as its system androgenetic alopecia (male pattern hair loss). The data set can be described thus: Pilot open study of oral minoxidil 0.25 mg once daily for 24 weeks in men with AGA. The class given is in vivo, human. The conditions noted are these: 0.25 mg daily. On the procedure: This study was a pilot, prospective, open, observational study conducted at the Sinclair Dermatology Clinic in Melbourne, Australia. Participants were dosed for 24 weeks. Treatment naïve men with Hamilton Norwood staged III vertex, IV or V were treated for 24 weeks with minoxidil 0.25 mg once daily. The primary efficacy endpoint was investigators' photographic assessment at week 24 and adverse events. Investigator photographic assessment was conducted by a single investigator grading the photographs using a 3 point rating scale, ranging from “decreased hair growth” to “increased hair growth,” centred at no change. Any reports of adverse events were collected at every visit.

Data set [2] concerns bitemporal hair loss in female pattern hair loss. The data set can be described thus: Oral minoxidil 0.25 mg daily in women with bitemporal recession in female pattern hair loss. The class given is in vivo, human. The conditions noted are these: for Hair shedding (HSS stage): baseline stage 6.
Data set [3] concerns chronic telogen effluvium. Put plainly: Once daily oral minoxidil in women with chronic telogen effluvium (CTE), hair shedding score and safety. The conditions noted are these: for Mean HSS: 36 women, oral 0.5-2.5 mg daily, baseline 5.63; for Reduction in mean HSS: p<0.001. On the procedure: The goals of this study were to review the use of oral minoxidil in CTE with respect to the response to hair shedding and safety. Hair shedding was assessed by patient self-reported Hair shedding Scores (HSS) using the visual analogue scale as described in Example 1 and FIG. 1. Hair Shedding Scores (HSS) were on the scale of 1 to 6 (6 being the highest level of hair shedding). Patients included in this study were women with a diagnosis of CTE based on >6 month history of increased telogen hair shedding, a HSS of 4-6, no visible mid frontal scalp hair loss (Sinclair stage 1) and no hair follicle miniaturization on scalp biopsy.
Data pertaining to dosage of oral minoxidil, previous treatments including topical minoxidil use, blood pressure, side effects, hypertrichosis and trichodynia were collected for each patient. Patient-reported responses were based on a visual analogue scale HSS at each consultation. The HSS prior to starting oral minoxidil, and scores at 6 and 12 months were extracted for analysis. Patients were treated with a once daily oral minoxidil (0.5 to 2.5 mg).
Data were analysed using Matlab R2014b statistical software. Hair shedding scores at baseline, 6 and 12 months were analysed using the Wilcoxon rank sum test for pair-wise comparisons. Differences in blood pressure at baseline and 6 months were also analysed using Wilcoxon rank sum test. Relationship between outcomes (HSS at six and 12 months) and individual patient specific variables including previous use of […], duration of disease, dosage and HSS at baseline were analysed using a generalised linear regression model.

SMILES strings stand for the structures.

`CC(C)(C)NC(=O)[C@H]1CC[C@H]2[C@@H]3CC[C@H]4NC(=O)C=C[C@]4(C)[C@H]3CC[C@]12C` [finasteride]: the “Efficacy in TE” value in the data set on telogen effluvium was “do not work”.

Consider `CC(=O)O[C@]1(C(C)=O)CC[C@H]2[C@@H]3C=C(Cl)C4=CC(=O)[C@@H]5C[C@@H]5[C@]4(C)[C@H]3CC[C@@]21C` [cyproterone acetate], for which the “Efficacy in TE” value in the data set with telogen effluvium is “do not work”.

Regarding `CC(=O)S[C@@H]1CC2=CC(=O)CC[C@]2(C)[C@H]2CC[C@@]3(C)[C@@H](CC[C@@]34CCC(=O)O4)[C@H]12` [spironolactone], the “Efficacy in TE” value in the data set with telogen effluvium was “do not work”.

On to `Nc1cc(N2CCCCC2)nc(N)[n+]1[O-]` [minoxidil], for which, in the data set on Monilethrix (Patient 6, oral 0.25 mg daily), the Side effects entry is recorded as “did not experience any side effects or complication”. In the data set with Monilethrix (low doses, oral), the Tolerability entry is listed as “well tolerated”. In data set [1] (patients with MPHL), the Tolerability entry was “well tolerated”. The Adverse events result in data set [1] (six men, 24 weeks) is “No adverse events”. Moreover, the Side-effects entry in data set [2] (Patient 8) is recorded as “no side-effects”. Also, the “Hair shedding (HSS stage)” value in data set [2] (Patient 8, 0.25 mg, review at 3 months) is given as 5. In addition, the Blood pressure in data set [2] (Patient 8, review at 3 months, baseline 110/70) is 115/65. Further, the Facial hypertrichosis result in data set [2] (Patient 8, review at 3 months, present at baseline) is on record as “unaltered”. The “Side effects or complications of treatment” value in data set [2] (Patient 9) is reported as “not experienced any side effects or complications”. The “Hair shedding (HSS stage)” value in data set [2] (Patient 9, 0.25 mg once daily with continued spironolactone 100 mg daily, review at 6 weeks) worked out at 4. Moreover, in data set [2] (Patient 9, review at 6 weeks, baseline 140/85), the Blood pressure was 125/85. Also, in data set [3] (after 6 months, of 36), the “Patients in whom the HSS improved” value was determined as 31 and the “Patients in whom the HSS remained the same” value was found to be 4. In addition, in data set [3] (at 6 months), the “Mean HSS” value is recorded as 3.9. For the same molecule, the “Mean HSS” value in data set [3] (at 12 months) came to 3.05. The “Patients in whom the HSS increased” value in data set [3] (at the 6-month mark, of 36) turned out to be 1. Besides, in data set [3] (at the 12 month mark, of 36), the “Patients improved from baseline” value was determined as 33. Besides, the “Reduction in mean HSS” value in data set [3] (baseline to 6 months) was found to be 1.7. Moreover, the “Reduction in mean HSS” value in data set [3] (baseline to 12 months) amounted to 2.58. Moreover, in data set [3] (between 6 months and 12 months, p=0.003), the “Mean reduction in HSS” value was determined as 0.89. Besides, in data set [3] (in vivo), the “Lowest blood pressure recorded” value is 90/70; the “Mean change in blood pressure, diastolic” value is “plus 2.1 mmHg”; the “Mean change in blood pressure, systolic” value is “minus 0.5 mmHg”; the “Mean dose in patient group with hypertrichosis (Yes)” value is on record as 1.46 mg. Also, in data set [3] (in vivo), the “Mean dose in patient group with trichodynia (Yes)” value came out at 1.19 mg, the “Mean dose in patient group without hypertrichosis (No)” value is 0.99 mg and the “Mean dose in patient group without trichodynia (No)” value is recorded as 1.11 mg. Moreover, in data set [3] (of 36), the “Patients who developed ankle oedema” value is “One”, the “Patients who developed any blood test abnormalities” value is listed as “No patients” and the “Women who developed facial hypertrichosis” value is reported as “Thirteen”. Further, in data set [3] (of 36, resolved with continued treatment), the “Patients who developed transient postural dizziness” value is given as “Two”. Further, the “Difference between blood pressure at baseline and 6 months” value in data set [3] (p>0.05) is reported as “no significant differences”. The “Mean reduction in HSS” value in data set [3] (patients who had not used topical minoxidil, at 12 months) was determined as 2.32. The “Mean reduction in HSS” value in data set [3] (patients who had not used topical minoxidil, at six months) was 1.56. Further, the “Mean reduction in HSS” value in data set [3] (patients who had previously used topical minoxidil, at 12 months) amounted to 3.18. Also, the “Mean reduction in HSS” value in data set [3] (patients who had previously used topical minoxidil, at six months) came out at 2.

(Values after US10226462B2, “Detection and treatment of excessive hair shedding” (Samson Clinical Pty Ltd, priority 2014, dated 2019).)
